Test results: DBAASP
Converted amounts (≈) assume the structure as drawn.

Columns and labels:
Assay in all cases: ≥ marks a high value that may be exact or a test limit, other limits are often not marked, values filed in µg/mL are converted to µM
[1] = test system: Escherichia coli ATCC 25922
[2] = test system: Staphylococcus aureus ATCC 25923
[3] = test system: Pseudomonas aeruginosa ATCC 27853

| Structure (SMILES) | MIC [1] | MIC [2] | MIC [3] |
| --- | --- | --- | --- |
| CC(C)C[C@H](NC(=O)[C@H](CC(N)=O)NC(=O)[C@H](CCCCN)NC(=O)[C@H](CCCN=C(N)N)NC(=O)[C@@H]1CCCN1C(=O)[C@H](C)N)C(=O)N[C@@H](CCCCN)C(=O)N[C@@H](Cc1c[nH]c2ccccc12)C(=O)O [APRKNLKW] | 31.6 µM (≈ 32 µg/mL) | – | – |
| CC(C)[C@H](NC(=O)[C@H](CC(N)=O)NC(=O)[C@H](CCCCN)NC(=O)[C@H](CCCN=C(N)N)NC(=O)[C@@H]1CCCN1C(=O)[C@H](C)N)C(=O)N[C@@H](CCCN=C(N)N)C(=O)N[C@@H](Cc1c[nH]c2ccccc12)C(=O)O [APRKNVRW] | 62.4 µM (≈ 64 µg/mL) | – | – |
| CC(C)C[C@H](NC(=O)[C@H](C)NC(=O)[C@H](CCCCN)NC(=O)[C@H](C)NC(=O)[C@H](CC(C)C)NC(=O)[C@H](CC(=O)O)NC(=O)[C@@H](N)CCC(=O)O)C(=O)N[C@@H](C)C(=O)N[C@@H](CCCCN)C(=O)N[C@@H](CCCCN)C(=O)O [EDLAKALAKK] | 4600 µM (≈ 5000 µg/mL) | 2300 µM (≈ 2500 µg/mL) | – |
| CSCC[C@H](NC(=O)[C@H](CCCN=C(N)N)NC(=O)[C@H](Cc1c[nH]c2ccccc12)NC(=O)[C@H](CCC(N)=O)NC(=O)[C@H](Cc1c[nH]c2ccccc12)NC(=O)[C@H](CCCN=C(N)N)NC(=O)[C@H](CCCN=C(N)N)NC(=O)[C@H](CS)NC(=O)[C@H](CCCCN)NC(=O)[C@@H](N)Cc1ccccc1)C(=O)N[C@@H](CCCCN)C(=O)O [FKCRRWQWRMK] | 30.8 µM (≈ 50 µg/mL) | 30.8 µM (≈ 50 µg/mL) | – |
| CC[C@H](C)[C@H](NC(=O)CNC(=O)[C@H](CC(N)=O)NC(=O)[C@@H](NC(=O)[C@@H](NC(=O)CNC(=O)[C@@H](NC(=O)[C@H](CCCCN)NC(=O)[C@@H](NC(=O)CNC(=O)[C@H](CCCCN)NC(=O)CNC(=O)[C@@H](NC(=O)[C@@H](NC(=O)[C@H](CCCCN)NC(=O)[C@@H]1CCCN1C(=O)[C@H](Cc1ccccc1)NC(=O)[C@@H](NC(=O)CN)[C@@H](C)CC)[C@@H](C)CC)[C@@H](C)CC)[C@@H](C)CC)[C@@H](C)O)[C@@H](C)CC)C(C)C)C(=O)N[C@@H](CCCCN)C(=O)N[C@@H](CO)C(=O)N[C@@H](CC(C)C)C(=O)N[C@H](C(=O)N[C@@H](CCCCN)C(=O)NCC(=O)N[C@H](C(=O)NCC(=O)N[C@@H](CCSC)C(=O)N[C@@H](CCCCN)C(=O)N[C@H](C(=O)N[C@@H](Cc1ccccc1)C(=O)N[C@@H](CCCCN)C(=O)N[C@@H](C)C(=O)NCC(=O)N[C@@H](CC(C)C)C(=O)N[C@@H](CC(N)=O)C(=O)N[C@@H](CC(N)=O)C(=O)N[C@H](C(=O)NCC(=O)N[C@@H](CC(N)=O)C(=O)N[C@H](C(=O)NCC(=O)N[C@H]1CSSC[C@@H](C(=O)O)NC(=O)[C@H](CCC(=O)O)NC(=O)[C@H](CC(=O)O)NC(=O)[C@H](CCC(=O)O)NC(=O)[C@H](CC(N)=O)NC1=O)[C@@H](C)O)[C@@H](C)CC)C(C)C)C(C)C)C(C)C [GIFPKIIGKGIKTGIVNGIKSLVKGVGMKVFKAGLNNIGNTGCNEDEC] | 1 µM (≈ 4.93 µg/mL) | – | – |
| CC[C@H](C)[C@H](NC(=O)[C@H](CCCCN)NC(=O)[C@H](CC(C)C)NC(=O)[C@H](CC(C)C)NC(=O)[C@@H]1CCCN1C(=O)CNC(=O)[C@H](CC(C)C)NC(=O)[C@H](CCCCN)NC(=O)CN)C(=O)N[C@@H](C)C(=O)N[C@@H](C)C(=O)N[C@@H](CCCCN)C(=O)N[C@H](C(=O)NCC(=O)N[C@@H](CO)C(=O)N[C@@H](CC(N)=O)C(=O)N[C@@H](CC(C)C)C(=O)N[C@@H](CC(C)C)C(N)=O)C(C)C [GKLGPLLKIAAKVGSNLL] | 12.5 µM (≈ 22.4 µg/mL) | – | – |
| CC[C@H](C)[C@H](NC(=O)[C@H](CCCN=C(N)N)NC(=O)[C@H](CCCCN)NC(=O)[C@H](CC(C)C)NC(=O)[C@H](CC(C)C)NC(=O)CN)C(=O)N[C@@H](CCCCN)C(=O)N[C@H](C(=O)N[C@@H](CC(C)C)C(N)=O)[C@@H](C)O [GLLKRIKTL] | > 41.3 µM | > 41.3 µM | – |
| CC[C@H](C)[C@H](NC(=O)[C@H](CCCN=C(N)N)NC(=O)[C@H](CCCCN)NC(=O)[C@H](CC(C)C)NC(=O)[C@H](CC(C)C)NC(=O)[C@@H](N)CCCCN)C(=O)N[C@@H](CCCCN)C(=O)N[C@H](C(=O)N[C@@H](CC(C)C)C(=O)N[C@@H](CC(C)C)C(N)=O)[C@@H](C)O [KLLKRIKTLL] | 19.6 µM (≈ 24 µg/mL) | > 19.6 µM | – |
| CC(C)C[C@H](NC(=O)[C@H](CCCN=C(N)N)NC(=O)[C@@H](N)CCCCN)C(=O)N[C@@H](CCCN=C(N)N)C(=O)N[C@@H](CCCN=C(N)N)C(=O)N[C@H](C(=O)N[C@@H](Cc1c[nH]c2ccccc12)C(=O)N[C@@H](CCCN=C(N)N)C(=O)N[C@@H](CCCN=C(N)N)C(=O)N[C@@H](Cc1c[nH]c2ccccc12)C(=O)N[C@@H](CCCN=C(N)N)C(N)=O)C(C)C [KRLRRVWRRWR] | 30 µM (≈ 50 µg/mL) | 5 µM (≈ 8.34 µg/mL) | 20 µM (≈ 33.3 µg/mL) |
| CC[C@H](C)[C@H](NC(=O)[C@H](Cc1c[nH]c2ccccc12)NC(=O)[C@H](CCCCN)NC(=O)[C@H](Cc1c[nH]c2ccccc12)NC(=O)[C@H](Cc1c[nH]c2ccccc12)NC(=O)[C@H](CCCCN)NC(=O)[C@H](CCCCN)NC(=O)[C@H](Cc1c[nH]c2ccccc12)NC(=O)[C@@H](N)CCCCN)C(N)=O [KWKKWWKWI] | 5.76 µM (≈ 7.99 µg/mL) | – | – |
| CC[C@H](C)[C@H](NC(=O)[C@H](CCCN=C(N)N)NC(=O)[C@H](CCCCN)NC(=O)[C@H](CC(C)C)NC(=O)[C@@H](N)CC(C)C)C(=O)N[C@@H](CCCCN)C(=O)N[C@H](C(=O)N[C@@H](CC(C)C)C(=O)N[C@@H](CC(C)C)C(N)=O)[C@@H](C)O [LLKRIKTLL] | 54.7 µM (≈ 59.9 µg/mL) | > 54.7 µM | – |
| CC(C)C[C@H](NC(=O)[C@@H](NC(=O)[C@H](CCCCN)NC(=O)[C@H](CCCCN)NC(=O)[C@@H](NC(=O)[C@H](CCCN=C(N)N)NC(=O)[C@H](CCCCN)NC(=O)[C@@H](NC(=O)[C@@H](N)CC(C)C)C(C)C)C(C)C)C(C)C)C(=O)O [LVKRVKKVL] | – | – | 64 µM (≈ 69.3 µg/mL) |

The remaining lines, values ahead:

| MIC [1] | MIC [2] | MIC [3] | Structure (SMILES) |
| --- | --- | --- | --- |
| – | 6 µM (≈ 12.6 µg/mL) | – | CC(C)C[C@H](NC(=O)[C@H](C)NC(=O)[C@@H](N)CO)C(=O)N[C@H](C(=O)NCC(=O)N[C@H]1CSSC[C@@H](C(=O)N[C@@H](Cc2ccccc2)C(=O)NCC(=O)N[C@@H](CCCN=C(N)N)C(=O)O)NC(=O)[C@@H]2CCCN2C(=O)[C@H](CCCCN)NC(=O)[C@@H]2CCCN2C(=O)[C@@H]2CCCN2C(=O)[C@H](Cc2ccc(O)cc2)NC(=O)[C@H](CO)NC(=O)[C@H](CCCCN)NC(=O)[C@H]([C@@H](C)O)NC(=O)[C@H](Cc2c[nH]c3ccccc23)NC1=O)C(C)C [SALVGCWTKSYPPKPCFGR] |
| > 100 µM | > 100 µM | > 100 µM | CC[C@H](C)[C@H](NC(=O)CNC(=O)[C@@H](N)CO)C(=O)N[C@@H](CCC(N)=O)C(=O)N1CCC[C@H]1C(=O)N[C@@H](CCC(=O)O)C(=O)N[C@@H](CCC(N)=O)C(=O)N[C@@H](Cc1cnc[nH]1)C(=O)N[C@@H](CO)C(=O)N[C@@H](CO)C(N)=O [SGIQPEQHSS] |
| – | – | 32 µM (≈ 36.9 µg/mL) | CSCC[C@H](NC(=O)[C@H](Cc1cnc[nH]1)NC(=O)[C@H](C)NC(=O)[C@H](CCSC)NC(=O)[C@@H](NC(=O)[C@H](CCCCN)NC(=O)[C@@H]1CCCN1C(=O)[C@H](CC(C)C)NC(=O)[C@@H](N)C(C)C)C(C)C)C(=O)N[C@@H](CCCCN)C(=O)O [VLPKVMAHMK] |
| 233 µM (≈ 512 µg/mL) | – | – | CC(C)C[C@H](NC(=O)[C@@H](N)C(C)C)C(=O)N[C@H](C(=O)N1CCC[C@H]1C(=O)N[C@@H](CCC(N)=O)C(=O)NCC(=O)N[C@@H](Cc1ccccc1)C(=O)N[C@@H](C)C(=O)N[C@H](C(=O)N[C@H](C(=O)N[C@@H](CCCCN)C(=O)N[C@@H](CCCCN)C(=O)N[C@@H](C)C(=O)N[C@@H](CC(N)=O)C(=O)N[C@@H](Cc1ccccc1)C(=O)N[C@H](C(=O)N[C@@H](C)C(=O)N[C@@H](Cc1ccccc1)C(=O)N[C@@H](Cc1ccc(O)cc1)C(=O)N[C@H](C(=O)O)[C@@H](C)O)C(C)C)C(C)C)C(C)C)C(C)C [VLVPQGFAVVKKANFVAFYT] |
| 16 µM (≈ 27.9 µg/mL) | 32 µM (≈ 55.7 µg/mL) | 100 µM (≈ 174 µg/mL) | CC(C)[C@H](NC(=O)[C@H](Cc1ccc(O)cc1)NC(=O)[C@H](CO)NC(=O)[C@H](CCCCN)NC(=O)[C@@H](N)Cc1c[nH]c2ccccc12)C(=O)N[C@@H](CCCN=C(N)N)C(=O)N[C@@H](CCCN=C(N)N)C(=O)N[C@@H](Cc1c[nH]c2ccccc12)C(=O)N[C@@H](CCCN=C(N)N)C(=O)N[C@@H](CO)C(=O)N[C@@H](CCCN=C(N)N)C(=O)N[C@@H](Cc1ccc(O)cc1)C(N)=O [WKSYVRRWRSRY] |
| 16 µM (≈ 25.3 µg/mL) | 32 µM (≈ 50.5 µg/mL) | > 100 µM | CC(C)[C@H](NC(=O)[C@H](Cc1ccc(O)cc1)NC(=O)[C@H](CO)NC(=O)[C@H](CCCCN)NC(=O)[C@@H](N)Cc1c[nH]c2ccccc12)C(=O)N[C@@H](CCCN=C(N)N)C(=O)N[C@@H](CCCN=C(N)N)C(=O)N[C@@H](Cc1c[nH]c2ccccc12)C(=O)N[C@@H](CCCN=C(N)N)C(=O)N[C@@H](CO)C(=O)N[C@@H](CCCN=C(N)N)C(N)=O [WKSYVRRWRSR] |
| 64 µM (≈ 91.1 µg/mL) | > 100 µM | > 100 µM | CC(C)[C@H](NC(=O)[C@H](Cc1ccc(O)cc1)NC(=O)[C@H](CO)NC(=O)[C@H](CCCCN)NC(=O)[C@@H](N)Cc1c[nH]c2ccccc12)C(=O)N[C@@H](CCCN=C(N)N)C(=O)N[C@@H](CCCN=C(N)N)C(=O)N[C@@H](Cc1c[nH]c2ccccc12)C(=O)N[C@@H](CCCN=C(N)N)C(=O)N[C@@H](CO)C(N)=O [WKSYVRRWRS] |
| 4.08 µM (≈ 7.5 µg/mL) | 2.72 µM (≈ 5 µg/mL) | 10.9 µM (≈ 20 µg/mL) | CSCC[C@H](NC(=O)[C@H](CCCN=C(N)N)NC(=O)[C@@H](N)Cc1ccc(O)cc1)C(=O)N[C@@H](Cc1c[nH]c2ccccc12)C(=O)N[C@@H](CCCN=C(N)N)C(=O)N[C@@H](Cc1c[nH]c2ccccc12)C(=O)N[C@@H](CCCN=C(N)N)C(=O)N[C@@H](Cc1c[nH]c2ccccc12)C(=O)N[C@@H](CCCN=C(N)N)C(=O)N[C@@H](Cc1c[nH]c2ccccc12)C(=O)N[C@@H](CCCN=C(N)N)C(N)=O [YRMWRWRWRWR] |
